How the values were obtained:
G62 cells = test: CellTiter Glo cell viability assay, pharmacological SCD1 inhibition; format: cell-based, human; conditions: vs vehicle (DMSO), FIG. 2B
Experimental: For the pharmacological inhibition studies of FIGS. 2B and 2C, an equal number of G62 cells was seeded in 96 wells in the presence of SCD1 inhibitor or vehicle (DMSO) in quadruplicate. Viable cells were quantified at indicated times using CellTiter Glo cell viability assay kit (Promega).

G68 cells = test: as above; format: cell-based, human; conditions: vs vehicle (DMSO), FIG. 2C

Cc1nnc(-c2ccc(N3CCC(Oc4cc(F)ccc4Cl)CC3)nn2)o1 [CAY10566, 3-[4-(2-chloro-5-fluorophenoxy)-1-piperidinyl]-6-(5-methyl-1,3,4-oxadiazol-2-yl)-pyridazine]
cell viability in the presence or absence of CAY10566 (G62 cells): induction of G62 cell death and growth inhibition
cell viability in the presence or absence of CAY10566 (G68 cells): induction of G68 cell death and growth inhibition

Source: US20180042925A1, “METHODS FOR TREATING CANCER” (CHILDREN'S HOSPITAL MEDICAL CENTER, priority 2015, published 2018)
